# Test results from patent US9034865B2, “Pyrido [4,3-B] indole and pyrido [3,4-B] indole derivatives and methods of use” (Medivation Technologies, Inc., priority 2010, dated 2015).
# Legend:
# [1] = biological target: T1, human recombinant histamine H1 receptor (Homo sapiens, UniProt P35367); assay: Histamine H1 radioligand binding ([3H]Pyrilamine); settings: compound at 0.1 μM; 1.2 nM [3H]Pyrilamine; read-out: Binding data (Percentage inhibition) Histamine H1 (0.1 μM)
# T1 construct: expressed in transfected cells; host or cells: CHO-K1
# T1 sequence (P35367 whole entry): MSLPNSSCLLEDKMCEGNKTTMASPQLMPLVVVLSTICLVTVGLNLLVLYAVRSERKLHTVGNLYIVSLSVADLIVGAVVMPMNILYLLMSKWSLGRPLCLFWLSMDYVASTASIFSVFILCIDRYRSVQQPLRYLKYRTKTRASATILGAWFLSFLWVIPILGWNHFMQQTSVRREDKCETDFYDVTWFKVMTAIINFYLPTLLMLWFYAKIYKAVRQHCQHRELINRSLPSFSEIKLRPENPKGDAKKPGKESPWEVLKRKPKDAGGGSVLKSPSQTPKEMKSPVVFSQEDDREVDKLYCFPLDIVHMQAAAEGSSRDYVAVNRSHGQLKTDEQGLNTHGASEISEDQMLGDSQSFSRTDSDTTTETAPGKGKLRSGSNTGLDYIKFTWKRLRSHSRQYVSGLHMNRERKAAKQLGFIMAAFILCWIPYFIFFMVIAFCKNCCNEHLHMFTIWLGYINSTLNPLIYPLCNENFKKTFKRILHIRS
# Description: To evaluate in radioligand binding assays the activity of compounds of the invention, human recombinant histamine H1 receptor expressed in Chinese hamster ovary (CHO) K1 cells (De Backer, M. et al, Biochem. Biophys. Res. Comm. 197(3):1601, 1993) in a modified Tris-HCl buffer (50 mM Tris-HCl, pH 7.4, 2 mM MgCl2, 100 mM NaCl, 250 mM Sucrose) was used. Compounds of the invention were incubated with 1.2 nM [^3H]Pyrilamine for 180 min at 25° C. Non-specific binding was estimated in the presence of 1 μM Pyrilamine. Receptor proteins were filtered and washed, the filters were then counted to determine [^3H]Pyrilamine specifically bound. Compounds were screened at 1 μM or lower, using 1% DMSO as vehicle. Biochemical assay results are presented as the percent inhibition of specific binding in Table 2.
# [2] = biological target: T2, human recombinant dopamine D2L receptor (Homo sapiens, UniProt P14416); assay: Dopamine D2L radioligand binding ([3H]Spiperone); settings: compound at 1 μM; read-out: Percentage inhibition of ligand binding, Dopamine (1 μM) D2L
# T2 construct: expressed in transfected cells; host or cells: CHO
# T2 sequence (P14416 whole entry): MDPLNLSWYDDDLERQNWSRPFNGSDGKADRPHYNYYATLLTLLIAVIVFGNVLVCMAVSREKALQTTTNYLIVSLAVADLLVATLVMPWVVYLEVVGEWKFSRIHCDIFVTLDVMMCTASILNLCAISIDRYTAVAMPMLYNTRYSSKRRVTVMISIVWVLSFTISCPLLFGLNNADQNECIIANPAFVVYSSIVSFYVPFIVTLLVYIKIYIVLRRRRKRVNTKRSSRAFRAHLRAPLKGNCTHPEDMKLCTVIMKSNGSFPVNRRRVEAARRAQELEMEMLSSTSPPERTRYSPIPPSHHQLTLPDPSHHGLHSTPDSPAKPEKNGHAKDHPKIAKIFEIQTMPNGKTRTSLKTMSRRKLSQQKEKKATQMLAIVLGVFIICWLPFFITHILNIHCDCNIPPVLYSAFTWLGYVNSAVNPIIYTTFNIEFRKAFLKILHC
# Description: To evaluate in radioligand binding assays the activity of compounds of the invention, human recombinant dopamine D2L receptor expressed in Chinese hamster ovary (CHO) cells (Grandy, D. et al, Proc. Natl. Acad. Sci. USA. 86:9762, 1989; Hayes, G. et al, Mol. Endocrinol. 6:920, 1992) in a modified Tris-HCl buffer (50 mM Tris-HCl, pH 7.4, 1.4 mM Ascorbic Acid, 0.001% BSA, 150 mM NaCl) was used. Compounds of the invention were incubated with 0.16 nM [^3H]Spiperonefor 120 min at 25° C. Non-specific binding was estimated in the presence of 10 μM Haloperidol. Receptor proteins were filtered and washed, the filters were then counted to determine [^3H]Spiperone specifically bound. Compounds were screened at 1 μM or lower, using 1% DMSO as vehicle. Biochemical assay results are presented as the percent inhibition of specific binding in Table 3.
# [3] = biological target: T3, human recombinant serotonin (5-Hydroxytryptamine) 5-HT2A receptor (Homo sapiens, UniProt P28223); assay: Serotonin 5-HT2A radioligand binding ([3H]Ketanserin); settings: compound at 0.1 μM; read-out: Percentage inhibition of ligand binding, Serotonin (0.1 μM) 5-HT2A
# T3 construct: expressed in transfected cells; host or cells: CHO-K1
# T3 sequence (P28223 whole entry): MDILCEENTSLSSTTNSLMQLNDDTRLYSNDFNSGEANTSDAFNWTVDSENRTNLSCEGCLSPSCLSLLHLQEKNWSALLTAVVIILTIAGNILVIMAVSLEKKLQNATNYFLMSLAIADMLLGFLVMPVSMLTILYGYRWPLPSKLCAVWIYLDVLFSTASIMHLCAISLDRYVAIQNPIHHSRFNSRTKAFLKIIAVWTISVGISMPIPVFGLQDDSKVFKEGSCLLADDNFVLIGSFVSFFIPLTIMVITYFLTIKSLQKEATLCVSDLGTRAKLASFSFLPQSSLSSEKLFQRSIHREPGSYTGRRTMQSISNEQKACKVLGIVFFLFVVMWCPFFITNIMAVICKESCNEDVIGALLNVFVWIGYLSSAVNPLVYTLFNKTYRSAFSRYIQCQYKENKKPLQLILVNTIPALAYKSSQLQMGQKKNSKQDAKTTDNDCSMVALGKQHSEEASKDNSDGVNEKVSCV
# Description: To evaluate in radioligand binding assays the activity of compounds of the invention, human recombinant serotonin (5-Hydroxytryptamine) 5-HT2A receptor expressed in Chinese hamster ovary (CHO) K1 cells (Bonhaus, D. et al, Br. J. Pharmacol. 115:622, 1995; Saucier, C. et al, J. Neurochem. 68:1998, 1997) in a 50 mM Tris-HCl buffer, pH 7.4, was used. Compounds of the invention were incubated with 0.5 nM [^3H]Ketanserin for 60 min at 25° C. Non-specific binding was estimated in the presence of 1 μM Mianserin. Receptor proteins were filtered and washed, the filters were then counted to determine [^3H]Ketanserin specifically bound. Compounds were screened at 1 μM or lower, using 1% DMSO as vehicle. Biochemical assay results are presented as the percent inhibition of specific binding in Table 4.
# [4] = biological target: T4, human recombinant serotonin (5-Hydroxytryptamine) 5-HT2C receptor (Homo sapiens, UniProt P28335); assay: Serotonin 5-HT2C radioligand binding ([3H]Mesulergine); settings: compound at 0.1 μM; read-out: Percentage inhibition of ligand binding, Serotonin (0.1 μM) 5-HT2C
# T4 construct: expressed in transfected cells; host or cells: CHO-K1
# T4 sequence (P28335 33-458): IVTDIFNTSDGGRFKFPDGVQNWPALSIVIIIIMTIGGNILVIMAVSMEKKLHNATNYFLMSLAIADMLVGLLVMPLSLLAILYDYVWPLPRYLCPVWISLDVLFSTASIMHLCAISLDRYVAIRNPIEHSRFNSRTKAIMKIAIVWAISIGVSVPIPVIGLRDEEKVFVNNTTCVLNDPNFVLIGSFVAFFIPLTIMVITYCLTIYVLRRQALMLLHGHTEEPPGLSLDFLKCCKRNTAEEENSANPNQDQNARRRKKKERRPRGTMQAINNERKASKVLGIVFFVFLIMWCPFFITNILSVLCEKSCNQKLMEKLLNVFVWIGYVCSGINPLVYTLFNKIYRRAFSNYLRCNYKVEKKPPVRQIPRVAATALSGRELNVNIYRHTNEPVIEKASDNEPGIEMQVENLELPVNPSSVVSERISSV
# Description: To evaluate in radioligand binding assays the activity of compounds of the invention, human recombinant serotonin (5-Hydroxytryptamine) 5-HT2C receptor expressed in Chinese hamster ovary (CHO) K1 cells (Wolf, W. et al, J. Neurochem. 69:1449, 1997) in a modified Tris-HCl buffer (50 mM Tris-HCl, pH 7.4, 0.1% Ascorbic Acid, 10 μM Pargyline) was used. Compounds of the invention were incubated with 1 nM [^3H]Mesulergine for 60 min at 25° C. Non-specific binding was estimated in the presence of 1 μM Mianserin. Receptor proteins were filtered and washed, the filters were then counted to determine [^3H]Mesulergine specifically bound. Compounds were screened at 1 μM or lower, using 1% DMSO as vehicle. Biochemical assay results are presented as the percent inhibition of specific binding in Table 4.
# [5] = biological target: T5, human recombinant serotonin (5-Hydroxytryptamine) 5-HT6 receptor (Homo sapiens, UniProt P50406); assay: Serotonin 5-HT6 radioligand binding ([3H]LSD); settings: compound at 0.1 μM; read-out: Percentage inhibition of ligand binding, Serotonin (0.1 μM) 5-HT6
# T5 construct: expressed in transfected cells; host or cells: HeLa
# T5 sequence (P50406 whole entry): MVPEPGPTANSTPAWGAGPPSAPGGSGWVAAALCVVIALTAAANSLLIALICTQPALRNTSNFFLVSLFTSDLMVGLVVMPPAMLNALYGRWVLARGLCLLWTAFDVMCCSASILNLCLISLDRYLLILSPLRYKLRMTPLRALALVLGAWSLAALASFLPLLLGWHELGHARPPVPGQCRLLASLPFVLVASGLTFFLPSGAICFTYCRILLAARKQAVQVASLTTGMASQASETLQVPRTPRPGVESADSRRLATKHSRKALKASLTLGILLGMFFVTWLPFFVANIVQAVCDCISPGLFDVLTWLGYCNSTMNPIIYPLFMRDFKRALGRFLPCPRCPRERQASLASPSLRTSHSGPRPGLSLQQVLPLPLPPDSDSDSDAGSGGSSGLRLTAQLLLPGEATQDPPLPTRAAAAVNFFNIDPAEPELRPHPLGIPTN
# Description: To evaluate in radioligand binding assays the activity of compounds of the invention, human recombinant serotonin (5-Hydroxytryptamine) 5-HT6 receptor expressed in human HeLa cells (Monsma, F. Jr. et al, Mol. Pharmacol. 43:320, 1993) in a modified Tris-HCl buffer (50 mM Tris-HCl, pH 7.4, 150 mM NaCl, 2 mM Ascorbic Acid, 0.001% BSA) was used. Compounds of the invention were incubated with 1.5 nM [3H]Lysergic acid diethylamide (LSD) for 120 min at 37° C. Non-specific binding was estimated in the presence of 5 μM Serotonin (5-HT). Receptor proteins were filtered and washed, the filters were then counted to determine [3H]LSD specifically bound. Compounds were screened at 1 μM or lower, using 1% DMSO as vehicle. Biochemical assay results are presented as the percent inhibition of specific binding in Table 4.
SMILES,inhibition at 0.1 µM [1] [%],inhibition at 1 µM [2] [%],inhibition at 0.1 µM [3] [%],inhibition at 0.1 µM [4] [%],inhibition at 0.1 µM [5] [%]
Cc1cc(-c2ccc(F)cc2)c2c(c1)c1c(n2C)CCN(C)C1 [Compound 7],6,5,6,36,10
Cc1cc(C#Cc2cccs2)c2[nH]c3c(c2c1)CN(C)CC3 [Compound 8],-3,-1,27,4,15
Cc1cc(-c2ccncc2)c2c(c1)c1c(n2C)CCN(C)C1 [Compound 9],0,7,5,9,-2
"C#Cc1cc(C)cc2c3c(n(C)c12)CCN(C)C3 [Compound 10, 6-Ethynyl-2,3,4,5-tetrahydro-2,5,8-trimethyl-1H-pyrido[4,3-b]indole]",5,70,37,55,18
C/C(=C\c1cc(C)cc2c3c(n(C)c12)CCN(C)C3)c1ccncc1 [Compound 11],-3,28,13,-11,-6
"Cc1cc(C#Cc2ccc(C)nc2)c2c(c1)c1c(n2C)CCN(C)C1 [Compound 12, 2,3,4,5-tetrahydro-2,5,8-trimethyl-6-(2-(6-methylpyridin-3-yl)ethynyl)-1H-pyrido[4,3-b]indole]",-14,14,23,3,-3
Cc1cc(CCc2ccc(C)nc2)c2c(c1)c1c(n2C)CCN(C)C1 [Compound 13],28,15,13,-11,2
Cc1cc(/C=C/c2ccc(C)nc2)c2c(c1)c1c(n2C)CCN(C)C1 [Compound 14],25,14,-7,1,10
C/C(=C\c1cc(C)cc2c3c(n(C)c12)CCN(C)C3)c1ccc(C)nc1 [Compound 15],2,3,1,28,11
Cc1cc(C#Cc2nccs2)c2[nH]c3c(c2c1)CN(C)CC3 [Compound 16],9,-1,21,20,14
Cc1cc(C#Cc2ccncc2)c2c(c1)c1c(n2C)CCN(C)C1 [Compound 17],39,1,24,19,5
Cc1ccc(C#Cc2cc(Cl)cc3c4c(n(C)c23)CCN(C)C4)cn1 [Compound 18],12,7,80,27,6
